In ChEMBL document CHEMBL1140287, “Reversion of human Pgp-dependent multidrug resistance by new sesquiterpenes from Zinowiewia costaricensis” (J Med Chem, 2005):

Key:
NIH3T3 [1] = assay: Concentration of compound inhibiting Pgp-mediated DNM transport in NIH3T3 cells transfected with human MDR1 protein; format: functional, cell-based
NIH3T3 [2] = system: NIH3T3
NIH3T3 [3] = system: NIH3T3; remark: listed apart in the source
NIH3T3 [4] = system: NIH3T3; remark: listed apart in the source
NIH3T3 [5] = system: NIH3T3; remark: listed apart in the source
NIH3T3 [6] = system: NIH3T3; remark: listed apart in the source
NIH3T3 [7] = system: NIH3T3; remark: listed apart in the source

CC(=O)OC[C@]12[C@H](OC(=O)c3ccccc3)C(=O)[C@@H]3[C@@H](OC(C)=O)[C@]1(OC3(C)C)[C@@](C)(O)C[C@H](OC(C)=O)[C@@H]2OC(=O)c1ccccc1
Ki (NIH3T3 [1]): 3010 nM

CC(=O)O[C@H]1C[C@](C)(O)[C@]23OC(C)(C)[C@H]([C@H](OC(=O)c4ccccc4)[C@H](OC(=O)c4ccccc4)[C@]2(C)[C@H]1OC(=O)c1ccccc1)[C@H]3OC(C)=O
Reversal ability (NIH3T3 [2]): 9.55 | Reversal ability (NIH3T3 [3]): 16.55 | Ki (NIH3T3 [1]): 913 nM | Reversal ability (NIH3T3 [4]): 12.72 | Reversal ability (NIH3T3 [5]): 8.26 | Reversal ability (NIH3T3 [6]): 90.39 | Reversal ability (NIH3T3 [7]): 87.04

CC(=O)OC[C@]12[C@H](OC(C)=O)C(=O)[C@@H]3[C@@H](OC(C)=O)[C@]1(OC3(C)C)[C@@](C)(O)[C@@H](OC(C)=O)[C@H](OC(C)=O)[C@@H]2OC(=O)c1ccccc1
Ki (NIH3T3 [1]): 6520 nM

CC(=O)OC[C@]12[C@@H](OC(=O)c3ccccc3)C[C@@H]3[C@@H](OC(C)=O)[C@]1(OC3(C)C)[C@@](C)(O)C[C@H](OC(C)=O)[C@@H]2OC(C)=O
Ki (NIH3T3 [1]): 4390 nM

CC(=O)OC[C@]12[C@H](OC(=O)c3ccccc3)C(=O)[C@@H]3[C@@H](OC(C)=O)[C@]1(OC3(C)C)[C@H](C)C[C@H](OC(C)=O)[C@@H]2OC(C)=O
Ki (NIH3T3 [1]): 2540 nM

CC(=O)O[C@@H]1[C@H]2[C@H](O)[C@H](OC(=O)c3ccccc3)[C@]3(C)[C@@H](OC(=O)c4ccccc4)[C@@H](OC(=O)c4ccccc4)C[C@](C)(O)[C@@]13OC2(C)C
Reversal ability (NIH3T3 [2]): 11.13 | Reversal ability (NIH3T3 [3]): 5.38 | Ki (NIH3T3 [1]): 1210 nM | Reversal ability (NIH3T3 [4]): 15.86 | Reversal ability (NIH3T3 [5]): 6.32 | Reversal ability (NIH3T3 [6]): 57.32 | Reversal ability (NIH3T3 [7]): 41.23

CC(=O)OC[C@]12[C@H](OC(=O)c3ccccc3)C(=O)[C@@H]3[C@@H](OC(C)=O)[C@]1(OC3(C)C)[C@@](C)(O)C[C@H](OC(=O)c1ccccc1)[C@@H]2OC(=O)c1ccccc1
Reversal ability (NIH3T3 [2]): 15.41 | Reversal ability (NIH3T3 [3]): 7.31 | Ki (NIH3T3 [1]): 1030 nM | Reversal ability (NIH3T3 [4]): 16.64 | Reversal ability (NIH3T3 [5]): 9.93 | Reversal ability (NIH3T3 [6]): 33.1 | Reversal ability (NIH3T3 [7]): 8.09

CC(=O)OC[C@]12[C@H](OC(=O)c3ccccc3)C(=O)[C@@H]3[C@@H](OC(C)=O)[C@]1(OC3(C)C)[C@H](C)C[C@H](OC(C)=O)[C@@H]2O
Ki (NIH3T3 [1]): 18400 nM

CC(=O)O[C@H]1C[C@](C)(O)[C@]23OC(C)(C)[C@H]([C@H](OC(=O)c4ccccc4)[C@H](OC(=O)c4ccccc4)[C@]2(CO)[C@H]1OC(C)=O)[C@H]3OC(C)=O
Ki (NIH3T3 [1]): 7040 nM

CC(=O)OC[C@]12[C@H](OC(C)=O)C(=O)[C@@H]3[C@@H](OC(C)=O)[C@]1(OC3(C)C)[C@H](C)C[C@H](OC(C)=O)[C@@H]2OC(=O)c1ccccc1
Ki (NIH3T3 [1]): 5740 nM

CC(=O)OC[C@]12[C@H](OC(=O)c3ccccc3)C(=O)[C@@H]3[C@@H](O)[C@]1(OC3(C)C)[C@@](C)(O)C[C@H](OC(C)=O)[C@@H]2OC(=O)c1ccccc1
Ki (NIH3T3 [1]): 3970 nM

CC(=O)OC[C@]12[C@@H](OC(=O)c3ccccc3)C[C@@H]3[C@@H](OC(C)=O)[C@]1(OC3(C)C)[C@H](C)C[C@H](OC(C)=O)[C@@H]2OC(C)=O
Ki (NIH3T3 [1]): 2360 nM

CC(=O)OC[C@]12[C@@H](OC(=O)c3ccccc3)[C@@H](OC(=O)c3ccccc3)[C@@H]3[C@@H](OC(C)=O)[C@]1(OC3(C)C)[C@@](C)(O)C[C@H](OC(C)=O)[C@@H]2OC(C)=O
Reversal ability (NIH3T3 [2]): 10.78 | Reversal ability (NIH3T3 [3]): 6.23 | Ki (NIH3T3 [1]): 1740 nM | Reversal ability (NIH3T3 [4]): 11.13 | Reversal ability (NIH3T3 [5]): 4.26 | Reversal ability (NIH3T3 [6]): 233.6 | Reversal ability (NIH3T3 [7]): 102.17

CC(=O)OC[C@]12[C@H](OC(C)=O)C(=O)[C@@H]3[C@@H](OC(C)=O)[C@]1(OC3(C)C)[C@H](C)C[C@H](OC(C)=O)[C@@H]2OC(C)=O
Ki (NIH3T3 [1]): 9830 nM

CC(=O)OC[C@]12[C@@H](OC(=O)c3ccccc3)[C@@H](OC(=O)c3ccccc3)[C@@H]3[C@@H](OC(C)=O)[C@]1(OC3(C)C)[C@H](C)C[C@H](OC(C)=O)[C@@H]2OC(C)=O
Ki (NIH3T3 [1]): 1710 nM

CC(=O)OC[C@]12[C@H](OC(=O)c3ccccc3)C(=O)[C@@H]3[C@@H](OC(C)=O)[C@]1(OC3(C)C)[C@H](C)C[C@H](OC(C)=O)[C@@H]2OC(=O)c1ccccc1
Reversal ability (NIH3T3 [2]): 6.21 | Reversal ability (NIH3T3 [3]): 5.72 | Ki (NIH3T3 [1]): 1630 nM | Reversal ability (NIH3T3 [4]): 11.75 | Reversal ability (NIH3T3 [5]): 4.21 | Reversal ability (NIH3T3 [6]): 233.37 | Reversal ability (NIH3T3 [7]): 213.64

COc1ccc(CCN(C)CCCC(C#N)(c2ccc(OC)c(OC)c2)C(C)C)cc1OC (configuration not stated)
Reversal ability (NIH3T3 [2]): 9.55 | Reversal ability (NIH3T3 [3]): 6.21 | Reversal ability (NIH3T3 [4]): 10.2 | Reversal ability (NIH3T3 [5]): 6.12 | Reversal ability (NIH3T3 [6]): 18.76 | Reversal ability (NIH3T3 [7]): 13.18
